The results in this text go back to patent US20060167229A1, “Biologically active peptide conjugates” (priority 2002, published 2006).

Entries after “also recorded” stand apart in the source; their conditions may differ. Marks after values point to notes of the source that are not given here. Ends that are not written are not given here.

Holding throughout (format): in vivo, BALB/c mice
One assay concerns anti-SRBC antibody. In words: Sheep Red Blood Cell (SRBC) hemolysis test, antibody formation. Particulars: for anti-SRBC antibody formation, X ± SD (Unit): healthy mice, SRBC day 12 (IFN-γ, IL-2 3×10^5 IU/kg/day), saline 32 ± 7; for effect on the synthesis of anti-SRBC antibody upon the antigenic challenge (summary): statistically significant difference from saline in any of the dosage groups 0.5-500 μg/kg/day. In a few lines: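 Antibody formation was read as haemolysis: 500-fold diluted serum, collected on day 16 after intraperitoneal SRBC (0.2 ml, day 12), was mixed with 2% SRBC plus complement for 10 min at 37° C. Supernatant haemoglobin measured with Drabkin reagent at OD540, indexed against a reference SRBC lysate ×500.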

The test system of the next assay is mononuclear phagocyte. In words: Carbon particle clearance test, phagocytosis function. More on the design: key to X ± SD (phagocytotic index): α = cube root of K × (body weight ÷ liver+spleen weight). The following applies: for X ± SD (phagocytotic index): healthy mice, saline 5.1 ± 0.6; for effect on the phagocytotic activity of mononuclear phagocyte (summary): statistically significant difference from saline in any of the dosage groups 0.5-500 μg/kg/day. The method, boiled down: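 Clearance index K came from OD680 of blood sampled 1 and 5 min after tail-vein India ink ([…], diluted 5×), given on day 16. Phagocytic index α combined K with liver, spleen […] weights taken the same day.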

In a further assay the test system is NK cell. In words: NK cell cytotoxicity activity test (spleen cells of treated mice against YAC-1 target cells, MTT). The following applies: for NK cell cytotoxic activity, X ± SD (%): healthy mice; for effect on the cytotoxic activity of NK cells (summary): statistically significant difference from saline in any of the dosage groups 0.5-500 μg/kg/day. In a few lines:
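YAC-1 target cells (1×10^5/ml) mixed with splenocytes (4×10^6/ml) from mice given test substances i.p. daily for 15 days (10 mice/group). Effector-only and target-only wells served as controls. MTT added at 1 mg/ml for 4 h at 37 °C; absorbance read at 570/630 nm.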

The test system of another assay is thymus gland. In words: Immunity organ weight test, thymus gland index. The following applies: for weight of thymus gland (thymus gland index), X ± SD (%): healthy mice, saline 0.12 ± 0.02; for effect on the weight of the thymus gland (summary): statistically significant difference from saline in any of the dosage groups 0.5-500 μg/kg/day. Here is the method:
One day after the last test substance administration (day 16), the liver, spleen, and thymus gland were separated and blotted dry with filter paper and weighed. The phagocytosis index α was calculated as below: α=(^3√{square root over ( )}K)(W÷WLS)
Thymus gland index (%)=(thymus weight/body weight)×100%

Setting [1] is: peptide 0.5 μg/kg/day i.p. 15 days.
[2] abbreviates: peptide 5 μg/kg/day i.p. 15 days.
Where [3] appears, read: peptide 50 μg/kg/day i.p. 15 days.
Setting [4] is: peptide 500 μg/kg/day i.p. 15 days.
The mark [5] stands for this setting: peptide 5 μg/kg/day i.p. 15 days (IFN-γ, IL-2 3×10^5 IU/kg/day).
[6] abbreviates: peptide 0.5 μg/kg/day i.p. 15 days (IFN-γ, IL-2 3×10^5 IU/kg/day), saline 58 ± 7.
Where [7] appears, read: peptide 5 μg/kg/day i.p. 15 days (IFN-γ, IL-2 3×10^5 IU/kg/day), saline 60 ± 9.
[8] abbreviates: peptide 50 μg/kg/day i.p. 15 days (IFN-γ, IL-2 3×10^5 IU/kg/day), saline 56 ± 8.
Where [9] appears, read: peptide 0.5 μg/kg/day i.p. 15 days (IFN-γ, IL-2 3×10^5 IU/kg/day).
Setting [10] is: peptide 50 μg/kg/day i.p. 15 days (IFN-γ, IL-2 3×10^5 IU/kg/day).
Where [11] appears, read: peptide 500 μg/kg/day i.p. 15 days (IFN-γ, IL-2 3×10^5 IU/kg/day).
Where [12] appears, read: peptide 500 μg/kg/day i.p. 15 days (IFN-γ, IL-2 3×10^5 IU/kg/day), saline 63 ± 9.

For the substance RVAPQQHPTL [CMS011], the “anti-SRBC antibody formation, X ± SD (Unit)” value in the assay on anti-SRBC antibody (setting [1]) is 5 ± 3 Unit; in the assay on anti-SRBC antibody (setting [2]), 115 ± 27*^@^ Unit; in the assay with anti-SRBC antibody (setting [3]), 67 ± 9*^@ Unit; with anti-SRBC antibody (setting [4]), 188 ± 16*^@^ Unit. For the same substance, the “X ± SD (phagocytotic index)” value with mononuclear phagocyte (setting [5]) was 6.4 ± 1.1. Besides, the “effect on the phagocytotic activity of mononuclear phagocyte (summary)” value (“effect on the phagocytotic activity” below) in the assay on mononuclear phagocyte is reported as “enhance”. Besides, the “NK cell cytotoxic activity, X ± SD (%)” value with NK cell (setting [6]) is 79 ± 3 %; with NK cell (setting [7]) it was 76 ± 10 %. For the same substance, the “effect on the cytotoxic activity of NK cells (summary)” value (“effect on the cytotoxic activity” for short) in the assay on NK cell was “increase”. For the same substance, the “weight of thymus gland (thymus gland index), X ± SD (%)” value in the assay with thymus gland (setting [5]) came out at 0.22 ± 0.04 %.
Turning to LGMQACGIHETTY [CMS012], the figures for the “anti-SRBC antibody formation, X ± SD (Unit)” value with anti-SRBC antibody (setting [2]), in the assay on anti-SRBC antibody (setting [3]) and in the assay on anti-SRBC antibody (setting [4]) were 81 ± 22*^@ Unit, 50 ± 14 Unit and 141 ± 21*^@^ Unit, respectively. Moreover, the “effect on the synthesis of anti-SRBC antibody upon the antigenic challenge (summary)” value (from here on “effect on the synthesis”) in the assay with anti-SRBC antibody is given as “enhance”. Moreover, the “NK cell cytotoxic activity, X ± SD (%)” value in the assay with NK cell (setting [6]) is given as 77 ± 6 %; in the assay with NK cell (setting [7]), 85 ± 7 %; in the assay with NK cell (setting [8]) it was 40 ± 9 %. For the same substance, the results for the “weight of thymus gland (thymus gland index), X ± SD (%)” value in the assay with thymus gland (setting [9]), in the assay on thymus gland (setting [5]) and in the assay on thymus gland (setting [10]) were 0.22 ± 0.06*^ %, 0.27 ± 0.06*^@^ % and 0.26 ± 0.02*^@^ %, respectively. The “effect on the weight of the thymus gland (summary)” value (“effect on the weight” below) in the assay with thymus gland is listed as “increase”.
Regarding “Pro Ser Ile Vat Gly Arg Pro Arg His Gln Gly Val Met (PSIVGRPRHQGVM; listed as Sus scrofa) [CMS015]”, the “anti-SRBC antibody formation, X ± SD (Unit)” value with anti-SRBC antibody (setting [1]) is 13 ± 4 Unit; with anti-SRBC antibody (setting [2]), 94 ± 37*^@ Unit; in the assay with anti-SRBC antibody (setting [3]), 54 ± 9*^@ Unit; in the assay with anti-SRBC antibody (setting [4]), 136 ± 22*^@^ Unit. In addition, the “effect on the synthesis” value with anti-SRBC antibody is reported as “enhance; also recorded: inhibit”. Besides, in the assay on NK cell (setting [8]), the “NK cell cytotoxic activity, X ± SD (%)” value turned out to be 78 ± 8 %. Further, the “effect on the cytotoxic activity” value in the assay on NK cell is on record as “increase”. Further, the “weight of thymus gland (thymus gland index), X ± SD (%)” value with thymus gland (setting [5]) stood at 0.20 ± 0.08 %. In addition, the “effect on the weight” value in the assay with thymus gland was “increase”.
With VGMGQKDSY, the “anti-SRBC antibody formation, X ± SD (Unit)” value is 12 ± 3 Unit with anti-SRBC antibody (setting [1]), 118 ± 20*^@^ Unit with anti-SRBC antibody (setting [2]) and 91 ± 26*^@ Unit with anti-SRBC antibody (setting [4]). Moreover, the “X ± SD (phagocytotic index)” value in the assay on mononuclear phagocyte (setting [5]) was 6.8 ± 0.6*^; in the assay on mononuclear phagocyte (setting [10]) it was 6.7 ± 0.9*^. Besides, the “effect on the phagocytotic activity” value with mononuclear phagocyte is on record as “enhance”. For the same substance, the “weight of thymus gland (thymus gland index), X ± SD (%)” value is 0.24 ± 0.02*^@^ % with thymus gland (setting [5]), 0.20 ± 0.03*^@^ % in the assay on thymus gland (setting [10]) and 0.19 ± 0.02 % in the assay with thymus gland (setting [11]). In addition, the “effect on the weight” value in the assay on thymus gland was “increase”.
On to “Tyr Ser Leu (YSL; listed as Sus scrofa) [CMS024]”, for which the entries for the “anti-SRBC antibody formation, X ± SD (Unit)” value in the assay with anti-SRBC antibody (setting [1]), in the assay with anti-SRBC antibody (setting [2]) and in the assay with anti-SRBC antibody (setting [4]) were 98 ± 6*^@^ Unit, 171 ± 39*^@^ Unit and 75 ± 29*^@ Unit, respectively. The “effect on the synthesis” value in the assay with anti-SRBC antibody is reported as “enhance”. In addition, the “X ± SD (phagocytotic index)” value with mononuclear phagocyte (setting [9]) was 6.7 ± 0.5*^; in the assay with mononuclear phagocyte (setting [10]), 6.6 ± 0.7; in the assay with mononuclear phagocyte (setting [11]), 6.4 ± 1.0. Besides, the “effect on the phagocytotic activity” value with mononuclear phagocyte is recorded as “enhance”. Moreover, the figures for the “NK cell cytotoxic activity, X ± SD (%)” value with NK cell (setting [7]) and with NK cell (setting [12]) were 78 ± 3 % and 89 ± 8 %, respectively. In addition, the “effect on the cytotoxic activity” value in the assay with NK cell is on record as “increase”. Further, the “weight of thymus gland (thymus gland index), X ± SD (%)” value is on record as 0.23 ± 0.06*^ % with thymus gland (setting [5]) and 0.27 ± 0.02*^@^ % with thymus gland (setting [10]). Besides, in the assay with thymus gland, the “effect on the weight” value was “increase”.
Turning to PTTKTYFPHF [CMS001], the “anti-SRBC antibody formation, X ± SD (Unit)” value in the assay on anti-SRBC antibody (setting [2]) is on record as 110 ± 24*^@ Unit. For the same substance, in the assay on anti-SRBC antibody, the “effect on the synthesis” value is reported as “enhance”. The “NK cell cytotoxic activity, X ± SD (%)” value in the assay with NK cell (setting [8]) stood at 85 ± 10 %. The “effect on the cytotoxic activity” value with NK cell is “increase”. Further, in the assay with thymus gland (setting [5]), the “weight of thymus gland (thymus gland index), X ± SD (%)” value came to 0.22 ± 0.05 %. Besides, in the assay with thymus gland, the “effect on the weight” value is recorded as “increase”.
Regarding LRVAPQQHPTL [CMS009], the “anti-SRBC antibody formation, X ± SD (Unit)” value with anti-SRBC antibody (setting [1]) is 2 ± 1 Unit; with anti-SRBC antibody (setting [2]), 79 ± 18*^@ Unit; with anti-SRBC antibody (setting [3]), 13 ± 5 Unit; in the assay with anti-SRBC antibody (setting [4]), 113 ± 22*^@^ Unit. In the assay with mononuclear phagocyte (setting [5]), the “X ± SD (phagocytotic index)” value is recorded as 6.9 ± 0.9*^. In the assay on mononuclear phagocyte, the “effect on the phagocytotic activity” value is reported as “enhance”. In addition, the “NK cell cytotoxic activity, X ± SD (%)” value in the assay with NK cell (setting [7]) is given as 92 ± 6*^@^ %. The “effect on the cytotoxic activity” value in the assay with NK cell is “increase”.
As for “Pro Gln Asn Phe (PQNF; printed: Pro Gln Asn Phe) [CMS034]”, the “anti-SRBC antibody formation, X ± SD (Unit)” value in the assay with anti-SRBC antibody (setting [1]) is recorded as 20 ± 2 Unit; in the assay on anti-SRBC antibody (setting [2]) it was 172 ± 37*^@^ Unit; in the assay on anti-SRBC antibody (setting [3]), 136 ± 11*^@^ Unit. Moreover, the “effect on the synthesis” value in the assay with anti-SRBC antibody is “enhance; also recorded: inhibit”. Further, the entries for the “NK cell cytotoxic activity, X ± SD (%)” value with NK cell (setting [7]) and with NK cell (setting [12]) were 90 ± 5 % and 85 ± 9 %, respectively. Also, the “effect on the cytotoxic activity” value in the assay with NK cell is recorded as “increase”. For the same substance, the figures for the “weight of thymus gland (thymus gland index), X ± SD (%)” value in the assay with thymus gland (setting [5]), with thymus gland (setting [10]) and in the assay on thymus gland (setting [11]) were 0.27 ± 0.06*^@^ %, 0.19 ± 0.04*^ % and 0.20 ± 0.05*^ %, respectively. Also, the “effect on the weight” value with thymus gland was “increase”.
Take FNFVPP [CMS003]: the “anti-SRBC antibody formation, X ± SD (Unit)” value in the assay on anti-SRBC antibody (setting [1]) is 2 ± 1 Unit; with anti-SRBC antibody (setting [2]), 91 ± 24*^@ Unit; in the assay with anti-SRBC antibody (setting [3]) it was 52 ± 11 Unit; with anti-SRBC antibody (setting [4]) it was 96 ± 18*^@ Unit. Besides, the results for the “X ± SD (phagocytotic index)” value with mononuclear phagocyte (setting [5]) and in the assay on mononuclear phagocyte (setting [11]) were 6.9 ± 0.9*^ and 6.6 ± 0.7, respectively. Moreover, in the assay with mononuclear phagocyte, the “effect on the phagocytotic activity” value is given as “enhance”. Moreover, the “NK cell cytotoxic activity, X ± SD (%)” value with NK cell (setting [8]) turned out to be 85 ± 6 %. Besides, the “effect on the cytotoxic activity” value with NK cell is listed as “increase”.
In the case of “Phe Gln Gln Gln (FQQQ; printed: Phe Gln Gln Gln) [CMS032]”, the “anti-SRBC antibody formation, X ± SD (Unit)” value with anti-SRBC antibody (setting [2]) is on record as 157 ± 37*^@^ Unit; in the assay on anti-SRBC antibody (setting [3]), 131 ± 24*^@^ Unit. The “effect on the synthesis” value in the assay with anti-SRBC antibody is “enhance”. The “NK cell cytotoxic activity, X ± SD (%)” value in the assay with NK cell (setting [12]) is reported as 87 ± 5 %. In addition, the “effect on the cytotoxic activity” value in the assay with NK cell is recorded as “increase”. Also, the “weight of thymus gland (thymus gland index), X ± SD (%)” value is given as 0.21 ± 0.06 % in the assay on thymus gland (setting [9]), 0.29 ± 0.04*^@^ % in the assay with thymus gland (setting [5]), 0.27 ± 0.03*^@^ % with thymus gland (setting [10]) and 0.25 ± 0.03*^@^ % in the assay on thymus gland (setting [11]). In addition, the “effect on the weight” value with thymus gland is “increase”.
